For data set [1], the target named is T1, VHL (Homo sapiens, UniProt P40337).
T1 construct: expressed in transfected cells
Nature of the data set: VHL nanoBRET (+ Digitonin). The data set is classed as cell-based. The procedure:
(§1) The VHL NanoBRET™ Target Engagement Assay analyzes the apparent affinity of test compounds for VHL in cells by competitive displacement of a VHL NanoBRET™ tracer reversibly bound to a NanoLuc® VHL fusion protein stably expressed in the cells.
(§2) 50 nL of control compound (10 mM; parental unlabeled VHL antagonist; see structure below) and 50 nL of DMSO (negative control) were dispensed into the appropriate control wells. DMSO was backfilled to a final volume of 50 nL as required. […] Max Signal control wells consisted of DMSO only treated wells. Minimum Signal control wells contained of 10 uM parental unlabeled VHL antagonist (control compound—see structure below). […] Background Signal control wells were prepared without tracer for background correction steps.
(§3) The raw BRET ratio values were calculated by dividing the acceptor emission value (610 nm) by the donor emission value (460 nm) for each sample. To correct for background, the BRET ratio in the absence of tracer (average of no-tracer control samples) was subtracted from the BRET ratio of each sample. Raw BRET units were converted to milliBRET units (mBU) by multiplying each raw BRET value by 1,000. The normalized NanoBRET™ signal was calculated relative to the Max Signal control wells (DMSO treated control wells) and the Minimum Signal control wells. Percentage inhibition was calculated relative to the Minimum Signal control and Maximum Signal control wells. IC50 values were derived by four parameter curve fitting using the Robust method.

The target in data set [2] is T1, VHL. The data set can be described thus: VHL HEK-293 BRET Assay (VHL NanoBRET Target Engagement Assay). The data set is classed as cell-based. The settings on record: for IC50: HEK 293 RT VHL-NanoLuc stable cells, 1 uM tracer, 2 hours, geometric mean where more than one measurement, read-out: VHL binding in cells (HEK293 nanoBRET); for Ratio cell permeability shift: ratio not defined. The procedure: as §1, §2, §3

The target of the next data set is T2, VHL Elongin B/C complex (Homo sapiens, UniProt P40337).
T2 construct: amino acids E55-D213 of human VHL with N-terminal His6 tag; His6 (N); TEV-protease cleavage site (N); made in house; host or cells: E. coli
Nature of the data set: Fluorescence Polarization (FP) VHL Binding Assay. The settings on record: fluorescence polarization tracer competition; geometric mean where more than one measurement.

Where only a bound is given, the exact number is not on record here.

T2 sequence (P40337 55-213): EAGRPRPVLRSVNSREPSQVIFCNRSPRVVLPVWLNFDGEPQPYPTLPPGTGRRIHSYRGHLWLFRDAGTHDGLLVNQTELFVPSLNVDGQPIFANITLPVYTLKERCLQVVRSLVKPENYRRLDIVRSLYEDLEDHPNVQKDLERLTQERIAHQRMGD
T2 sequence (Q15370 whole entry partner, the tested form may be a part): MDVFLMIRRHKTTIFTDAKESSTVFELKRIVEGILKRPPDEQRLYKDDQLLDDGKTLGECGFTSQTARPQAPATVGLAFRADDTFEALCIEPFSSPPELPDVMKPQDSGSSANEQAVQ
T2 sequence (Q15369 17-112 partner limits assumed): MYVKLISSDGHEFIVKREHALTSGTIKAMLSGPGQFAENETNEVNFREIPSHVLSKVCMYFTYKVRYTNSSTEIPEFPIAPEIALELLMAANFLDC
T1 sequence (P40337 whole entry): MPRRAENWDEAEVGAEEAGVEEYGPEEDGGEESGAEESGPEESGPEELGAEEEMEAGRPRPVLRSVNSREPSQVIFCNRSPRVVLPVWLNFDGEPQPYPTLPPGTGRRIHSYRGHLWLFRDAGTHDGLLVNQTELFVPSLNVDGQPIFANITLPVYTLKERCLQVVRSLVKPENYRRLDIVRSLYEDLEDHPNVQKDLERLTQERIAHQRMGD
Description for VHL Elongin B/C complex: The binding of test compounds to the VHL Elongin B/C complex was measured using a fluorescence polarization tracer competition assay. The VHL/Elongin B/C protein complex used in the assay was generated as follows. The coding region for amino acids E55-D213 of human VHL with N-terminal His6 tag with a TEV-protease cleavage site was co-expressed with Elongin B (residues M1-Q118) and Elongin C (Residues M17-C112) in E. coli. The VHL/Elongin B/C complex was purified using an affinity nickel column, anion exchange HiTrap QP HP column chromatography, and gel filtration using a Superdex 75 26/60 column. The purified VHL/Elongin B/C complex was dialyzed into formulation buffer: 20 mM Bis-Tris pH7.0, 150 mM NaCl, 1 mM DTT. A VHL fluorescence polarization probe consisted of a VHL ligand coupled to carboxytetramethylrhodamine (TAMRA); (2S,4R)—N-(2-(2-(3′,6′-bis(dimethylamino)-3-oxo-3H-spiro[isobenzofuran-1,9′-xanthene]-5-carboxamido)ethoxy)-4-(4-methylthiazol-5-yl)benzyl)-4-hydroxy-1-((R)-3-methyl-2-(3-methylisoxazol-5-yl)butanoyl)pyrrolidine-2-carboxamide. […] DMSO was dispensed into wells designated for “VHL control” (without compound) wells. The “Assay Buffer” consisted of 50 mM Tris pH 8.0, 120 mM NaCl, 0.005% Nonidet P-40, and 1% DMSO (v/v). Assay Buffer containing 5.28 μM VHL Elongin B/C complex was prepared and 5 μl dispensed using a BioRapTR (Beckman Coulter) into each well of the assay plate. Assay Buffer was also dispensed into “no VHL control” wells using the same method. A “pre-assay” fluorescence measurement was made using an Infinite® M1000 (Tecan) plate reader (Excitation 530 nm, Emission 574 nm, Bandwidth 10 nm). Assay Buffer containing 3.34 nM of the VHL FP probe was prepared in Assay Buffer and 5 μl dispensed into each well of the assay plate using a BioRapTR (Beckman Coulter). The final VHL/Elongin B/C protein concentration is 2.64 nM and the final probe concentration is 1.67 nM. Assay plates were briefly centrifuged and incubated for 1 hour at room temperature. “Post-assay” fluorescence polarization measurements were made as described for the “pre-assay” fluorescence measurement. Fluorescence polarization was calculated for each sample; taking into account the “pre-assay” fluorescence measurements and subtracting the fluorescence signal of the compound/VHL only (“pre-assay”) measurements from the “post-assay” fluorescence polarization measurements, for each plane of polarization. The data were analyzed using Genedata Screener software and normalized to the “no VHL control” and “VHL control” (without compound). IC50 values were calculated using a four parameter curve fit (Robust method).

`CC(C)(C)[C@@H](C(=O)N1C[C@H](O)C[C@H]1C(=O)N[C@H](Cc1ccc(-c2ccccc2)cc1)C(N)=O)n1cc(C2CC2)nn1` [Example S3, (2S,4R)—N—((R)-3-([1,1′-biphenyl]-4-yl)-1-amino-1-oxopropan-2-yl)-1-((S)-2-(4-cyclopropyl-JH-1,2,3-triazol-1-yl)-3,3-dimethylbutanoyl)-4-hydroxypyrrolidine-2-carboxamide] registered an EC50 at VHL [1] of 140 nM. Also, at VHL [2], the IC50 came out at 150 nM and the “Ratio cell permeability shift” value was determined as 0.97. The molecule also gave an IC50 at VHL Elongin B/C complex of 150 nM.

Regarding `CC(=O)NCCOCc1cn([C@H](C(=O)N2C[C@H](O)C[C@H]2C(=O)N[C@H](Cc2ccc(-c3ccccc3)cc2)C(N)=O)C(C)(C)C)nn1` [Example S14, (2S,4R)—N—((R)-3-([1,1′-biphenyl]-4-yl)-1-amino-1-oxopropan-2-yl)-1-((S)-2-(4-((2-acetamidoethoxy)methyl)-1H-1,2,3-triazol-1-yl)-3,3-dimethylbutanoyl)-4-hydroxypyrrolidine-2-carboxamide], at VHL [2], the IC50 was determined as 20700 nM and the “Ratio cell permeability shift” value is reported as 264.37. At VHL Elongin B/C complex, this molecule registered an IC50 of 80 nM.

As to `Cc1ncsc1-c1ccc(CNC(=O)[C@@H]2C[C@@H](O)CN2C(=O)[C@@H](n2cc(C3CC3)nn2)C(C)(C)C)cc1` [Example S24, (2S,4R)-1-((S)-2-(4-cyclopropyl-1H-1,2,3-triazol-1-yl)-3,3-dimethylbutanoyl)-4-hydroxy-N-(4-(4-methylthiazol-5-yl)benzyl)pyrrolidine-2-carboxamide], the midpoint of the response at VHL [1], the EC50, lay at 10 nM. For the same molecule, on VHL [2], the IC50 was 10 nM and the “Ratio cell permeability shift” value was 1.22. Besides, the IC50 at VHL Elongin B/C complex turned out to be 10 nM.

Molecule `Cc1ncsc1-c1ccc(CNC(=O)[C@@H]2C[C@@H](O)CN2C(=O)[C@@H](n2cc(Cc3ccccc3)nn2)C(C)(C)C)cc1` [Example S27, (2S,4R)-1-((S)-2-(4-benzyl-1H-1,2,3-triazol-1-yl)-3,3-dimethylbutanoyl)-4-hydroxy-N-(4-(4-methylthiazol-5-yl)benzyl)pyrrolidine-2-carboxamide] returned an EC50 at VHL [1] of 20 nM. Also, on VHL [2], the IC50 was 20 nM and the “Ratio cell permeability shift” value was determined as 0.88. At VHL Elongin B/C complex, this molecule yielded an IC50 of 20 nM.

`Cc1ncsc1-c1ccc2c(c1)CCCC[C@H]2NC(=O)[C@@H]1C[C@@H](O)CN1C(=O)[C@@H](n1cc(C2CC2)nn1)C(C)(C)C` [Example S44, (2S,4R)-1-((S)-2-(4-cyclopropyl-1H-1,2,3-triazol-1-yl)-3,3-dimethylbutanoyl)-4-hydroxy-N—((R)-2-(4-methylthiazol-5-yl)-6,7,8,9-tetrahydro-5H-benzo[7]annulen-5-yl)pyrrolidine-2-carboxamide]: the EC50 on VHL [1] was less than 5 nM. Further, the IC50 on VHL [2] was less than 5 nM.

`Cc1ncsc1-c1ccc2c(c1)CCCC[C@@H]2NC(=O)[C@@H]1C[C@@H](O)CN1C(=O)[C@@H](n1cc(C2CC2)nn1)C(C)(C)C` [Example S45, (2S,4R)-1-((S)-2-(4-cyclopropyl-1H-1,2,3-triazol-1-yl)-3,3-dimethylbutanoyl)-4-hydroxy-N—((S)-2-(4-methylthiazol-5-yl)-6,7,8,9-tetrahydro-5H-benzo[7]annulen-5-yl)pyrrolidine-2-carboxamide] returned an EC50 at VHL [1] of 230 nM. Further, at VHL [2], the IC50 stood at 200 nM and the “Ratio cell permeability shift” value is recorded as 0.86.

At VHL [1], `C[C@H](NC(=O)[C@@H]1C[C@@H](O)CN1C(=O)[C@@H](n1cc(C2CC2)nn1)C(C)(C)C)c1ccc(-c2ccccc2Cl)cc1` [Example S46, (2S,4R)—N—((S)-1-(2′-chloro-[1,1′-biphenyl]-4-yl)ethyl)-1-((S)-2-(4-cyclopropyl-1H-1,2,3-triazol-1-yl)-3,3-dimethylbutanoyl)-4-hydroxypyrrolidine-2-carboxamide] came in with an EC50 of 10 nM. Besides, on VHL [2], the IC50 is 10 nM and the “Ratio cell permeability shift” value is on record as 0.84.

These data come from US20230391766A1, “1-(2-(4-CYCLOPROPYL-1H-1,2,3-TRIAZOL-1-YL)ACETYL)-4-HYDROXY-N-(BENZYL)PYRROLIDIN E-2-CARBOXAMIDE DERIVATIVES AS VHL INHIBITORS FOR THE TREATMENT OF ANEMIA AND CANCER” (Genentech, Inc., priority 2020, published 2023).
